Experimental data: patent US20030031647A1, “IFN-alpha and amantadine for treating hepatitis C” (priority 1997, published 2003)

Experiments:
[1] = tested on: Hepatitis C Virus; experiment: HCV RNA in cultured PBMC from chronic hepatitis C patients (RT-PCR, AMPLICOR HCV MONITOR assay); assay type: cell-based, Hepatitis C virus (subtype 1b prevalent) in human PBMC; settings: for Number of cases with HCV RNA Negative / Number of cases with reduction in HCV RNA concentration >25% / Number of cases with reduction in HCV RNA concentration >50% / Number of cases with reduction in HCV RNA concentration >75%: IFN-α2A 0 IU/ml, PBMC, n = 15
Protocol: Antiviral Effect of Amantadine and IFN-α2A Against Hepatitis C Virus on Peripheral Blood Mononuclear Cells (PBMC) from Chronic Hepatitis C Patients
Mononuclear cells from patients with chronic hepatitis C (serum anti-HCV and HCV RNA positive with histologically proven chronic hepatitis) were analyzed for the presence of HCV RNA, using reverse transcription and PCR techniques with universal primers from the highly conserved 5′ non-coding region of the HCV genome (Navas et al., J. Hepatol. 21, 182-186 (1994)). Typing and subtyping of HCV genomes were performed by RFLP analysis of PCR products (Navas et al., J. Clin. Microbiol. 21, 317-321(1997)). For the purpose of this study, only cases infected by a single genotype have been considered, in order to minimize the possible interference of multiple genotypes, in the subject population, HCV subtype 1b was prevalent (Pernas et al., J. Gen. Virol. 76, 415-420(1995)). Thus, HCV RNA-positive PBMC obtained from 15 patients have been analyzed in vitro for the effects of treatment. PBMC from 10 matched healthy donors have been used as controls and analyzed similarly.
(§1) PBMC were isolated from heparinized venous blood by Ficoll-Hypaque gradient sedimentation. The interphase PBMC were isolated, washed twice with phosphate-buffered saline, and suspended in RPMI. The viability of these cells was assessed by trypan blue exclusion. PBMC were cultured in duplicate at a concentration of 2×10^6 viable cells/ml in 6-well tissue culture dusters, in a humid atmosphere with 5% CO2 for 7 days. The cultures have been maintained without mitogens (medium alone) or were stimulated with single mitogens (Phytohemagglutinin (PHA) or Lipopolysaccharide (LPS) or with PHA plus LPS (10 μg/ml each)(Martin et al., Cytokine 8, 313-317 (1996)). PBMC proliferation, and the possible drug-induced cytotoxicity, were measured using non-isotopic cell-proliferation and cytotoxicity assays.
The effect of experimental treatments with amantadine alone, in combination with IFN-α2A and those of IFN-α2A alone, have been established by testing HCV RNA in cultured mononuclear cells, compared with untreated PBMC from patients (Martin et al., supra); specificity controls were as described previously by Navas et al. in J. Hepatol. 21, 182-186 (1994). Treatment of mononuclear cells form healthy donors with amantadine alone, in combination with IFN-α2A or with IFN-α2A alone, served as controls. Changes in HCV RNA concentrations were measured by the AMPLICOR™ HCV MONITOR assay (Roche Diagnostic System, Inc., Branchburg).

[2] = tested on: PBMC; experiment: PBMC viability, proliferation and cytotoxicity (non-isotopic cell-proliferation and cytotoxicity assays); assay type: cell-based, human; settings: for PBMC proliferation: PBMC from healthy donors
Protocol: as §1

[3] = amantadine 1-5 μM, cultured PBMC from HCV patients and healthy donors

## NC12CC3CC(CC(C3)C1)C2 [Amantadine, tricyclo[3.3.1.1^3,7]decane-1-amine]
[1]; 2 μM amantadine, 1/15 patients
  PBMC cultures in which HCV RNA became negative: 7%
[1]; 5 μM amantadine, 3/15 patients
  PBMC cultures in which HCV RNA became negative: 20%
[1]; Amantadine 1 μM
  Number of cases with HCV RNA Negative: 0
  Number of cases with reduction in HCV RNA concentration >25%: 3
  Number of cases with reduction in HCV RNA concentration >50%: 2
  Number of cases with reduction in HCV RNA concentration >75%: 3
[1]; Amantadine 2 μM
  Number of cases with HCV RNA Negative: 1
  Number of cases with reduction in HCV RNA concentration >25%: 5
  Number of cases with reduction in HCV RNA concentration >50%: 2
  Number of cases with reduction in HCV RNA concentration >75%: 4
[1]; Amantadine 5 μM
  Number of cases with HCV RNA Negative: 3
  Number of cases with reduction in HCV RNA concentration >25%: 2
  Number of cases with reduction in HCV RNA concentration >50%: 2
  Number of cases with reduction in HCV RNA concentration >75%: 3
[2]; amantadine 50 μM
  PBMC proliferation: slightly decreased PBMC proliferation
[2]; amantadine 500 μM
  PBMC proliferation: marked anti-proliferative effect
[2]; [3]
  cell viability: did not affect the cell viability
  response to mitogens: minor effects on the response to mitogens
